Tests used:
BT3775 = biological target: T1, BT3775 (Bacteroides thetaiotaomicron, UniProt Q8A191); assay: HPAEC, MALDI-TOF, linkage analysis; assay type: biochemical; details: 10 mM MnCl2, pH 7.5, 37 °C
T1 sequence (Q8A191 1-224): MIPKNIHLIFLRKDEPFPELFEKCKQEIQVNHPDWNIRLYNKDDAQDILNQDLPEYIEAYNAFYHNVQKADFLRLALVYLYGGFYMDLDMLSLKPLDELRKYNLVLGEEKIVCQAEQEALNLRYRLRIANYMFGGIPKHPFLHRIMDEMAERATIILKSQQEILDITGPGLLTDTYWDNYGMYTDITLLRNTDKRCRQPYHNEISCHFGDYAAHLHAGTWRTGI

BxGH99 = biological target: T2, BxGH99 (Bacteroides xylanisolvens, UniProt D6D1V7); assay: X-ray crystal structure; assay type: binding; details: crystal soak about 10 mM
T2 sequence (D6D1V7 13-380): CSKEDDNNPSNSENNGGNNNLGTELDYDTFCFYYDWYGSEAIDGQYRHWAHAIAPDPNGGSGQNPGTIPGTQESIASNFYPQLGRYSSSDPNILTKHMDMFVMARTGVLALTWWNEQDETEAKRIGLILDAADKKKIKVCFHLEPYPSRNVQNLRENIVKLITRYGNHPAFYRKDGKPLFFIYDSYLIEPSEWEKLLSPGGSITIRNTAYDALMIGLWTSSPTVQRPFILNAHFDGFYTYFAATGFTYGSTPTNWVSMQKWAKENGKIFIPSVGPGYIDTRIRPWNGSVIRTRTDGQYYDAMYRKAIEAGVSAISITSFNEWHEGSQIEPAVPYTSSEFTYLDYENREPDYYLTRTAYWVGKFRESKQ

OC[C@H]1OC(O)[C@@H](O)[C@@H](O)[C@@H]1O (stereo partly shown) [mannose]
HPAEC, MALDI-TOF, linkage analysis (BT3775; donor GDP-mannose): mannobiose produced by BT3775 from mannose

Nc1nc2c(ncn2[C@@H]2O[C@H](COP(=O)(O)OP(=O)(O)O[C@H]3O[C@H](CO)[C@@H](O)[C@H](O)[C@@H]3O)[C@@H](O)[C@H]2O)c(=O)[nH]1 [GDP-Mannose]
HPAEC, MALDI-TOF, linkage analysis (BT3775; acceptor mannose): using mannose as an acceptor and GDP-α-Man as the donor

OC[C@H]1O[C@H](O[C@@H]2C(O)O[C@H](CO)[C@@H](O)[C@@H]2O)[C@@H](O)[C@@H](O)[C@@H]1O (stereo partly drawn) [α-1,2-mannobiose]
X-ray crystal structure (BxGH99; ternary complex with Man-IFG): ternary with Man-IFG and α-1,2-mannobiose, was achieved by soaking native BxGH99 crystals

OC[C@H]1CNC[C@@H](O[C@H]2O[C@H](CO)[C@@H](O)[C@H](O)[C@@H]2O)[C@@H]1O [Man-IFG]
X-ray crystal structure (BxGH99; ternary complex with alpha-1,2-mannobiose): ternary with Man-IFG and α-1,2-mannobiose, was achieved by soaking native BxGH99 crystals

Source: article PMC4978465 (Nature, 2015)
